{"source": "patent US20260248831A1", "about": "“NON-TUBERCULOSIS MYCOBACTERIA INFECTION TREATMENT” (AN2 Therapeutics, Inc., priority 2021, published 2026)", "key": {"[1]": {"system": "NTM strains", "experiment": "Checkerboard synergy testing, summary over all strains tested", "type": "cell-based, nontuberculous mycobacteria", "conditions": "clarithromycin, ethambutol, rifabutin, amikacin, bedaquiline"}, "[2]": {"system": "M. intracellulare 20-S-13", "experiment": "Checkerboard antibacterial synergy testing of EBO pairwise combinations", "type": "cell-based", "conditions": "M. intracellulare 20-S-13, clarithromycin resistant strain", "protocol": "Frozen stocks of the drugs were prepared at 5 or 2 mg/ml and frozen in aliquots at −20° C. On the day of the experiment the stocks were thawed and diluted to the appropriate concentration. Middlebrook 7H9 broth and agar, CA-MH agar and Middlebrook OADC were all purchased from Becton-Dickinson and Company (Sparks, MD).\nM. avium 2285R (Verma et al. Microbiol (2019) 10: 693) and M intracellulare DNA000111 were obtained from Diane Ordway (Colorado State University, Fort Collins, CO). M. chimaera 20-S-05 and the macrolide/bedaquiline-resistant M. intracellulare 20-S-13 isolate were obtained from Barbara Brown-Elliott (Mycobacteria/Nocardia Research Laboratory, University of Texas Health Science Center, Tyler Tx). […]\nThe checkerboard methodology was used to test for synergy and antagonism using Middlebrook 7H9+5% OADC (Dubos et al. Am Rev Tuberc (1947) 56:334-45) as the microbiology growth media. […] Synergistic or antagonistic activity was determined using the sum of the fractional inhibitory concentration (ΣFIC) index. The FTC index is calculated as the sum of FTC A+FTC B, where FTC A is the MIC of drug A in the combination of drugs A and B divided by the MIC of drug A alone, plus the MIC of drug B in the combination of drugs A and B divided by the MIC of drug B alone. […]"}, "[3]": {"system": "MAC strains", "experiment": "Checkerboard synergy testing, summary over the MAC strains tested", "type": "cell-based, Mycobacterium avium complex", "conditions": "out of a total of 5 MAC strains tested"}, "[4]": {"conditions": "in vivo; cited from earlier work"}}, "note": "Where a name gives a salt, the structure may show the parent alone."}
{"smiles": "NC[C@H]1OB(O)c2c(OCCCO)cccc21", "note": "[EBO, epetraborole hydrochloride]", "values": [{"measurement": "Antagonism of EBO activity by second drug", "setting": "[1]", "value": "not antagonized"}]}
{"smiles": "CC[C@@H](CO)NCCN[C@@H](CC)CO", "note": "[EMB, Ethambutol]", "values": [{"measurement": "Interaction between ethambutol and EBO (in words)", "setting": "[2]", "value": "indifference"}, {"measurement": "Synergy/additivity with EBO, number of strains", "setting": "[3]", "value": "synergy was observed with 2 strains and additivity with an additional 2 strains"}]}
{"smiles": "NC[C@H]1OB(O)c2c(OCCCO)cccc21", "note": "[epetraborole, Epetraborole]", "values": [{"measurement": "Course of hematological abnormalities", "setting": "[4]", "value": "return to baseline values after discontinuation of epetraborole"}, {"measurement": "RBC parameters (including hemoglobin, RBCs, and reticulocyte counts)", "setting": "[4]", "value": "Decreases in RBC parameters"}]}
